# Test results reported in US20240158446A1, “CYCLIC COMPOUND HAVING SELECTIVE INHIBITORY ACTION ON KRAS OVER HRAS AND NRAS” (CHUGAI SEIYAKU KABUSHIKI KAISHA, priority 2021, published 2024).
# How the values were obtained:
# [1] = molecular target: GDP-bound KRAS wild-type protein (Homo sapiens, UniProt P01116); experiment: Binding to KRAS by surface plasmon resonance (SPR), Single Cycle Kinetics; conditions: SPR, Single Cycle Kinetics, GDP-bound KRAS wild-type protein; read-out: KRAS KD
# [2] = system: human lung cancer strain NCI-H441;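 note: cell proliferation inhibition after four days measured by CellTiter-Glo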
# [3] = molecular target: GDP-bound NRAS wild-type protein (Homo sapiens, UniProt P01111); experiment: Binding to NRAS by surface plasmon resonance (SPR), Single Cycle Kinetics; conditions: SPR, GDP-bound NRAS wild-type protein vs GDP-bound KRAS wild-type protein
# Sequence of GDP-bound NRAS wild-type protein (P01111 whole entry): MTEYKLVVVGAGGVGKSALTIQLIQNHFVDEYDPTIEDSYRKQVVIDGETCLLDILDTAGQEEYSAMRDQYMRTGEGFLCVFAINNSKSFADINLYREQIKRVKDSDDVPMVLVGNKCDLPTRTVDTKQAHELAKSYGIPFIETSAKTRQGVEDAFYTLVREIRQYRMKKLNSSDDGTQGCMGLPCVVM
# [4] = molecular target: GDP-bound HRAS wild-type protein (Homo sapiens, UniProt P01112); experiment: Binding to HRAS by surface plasmon resonance (SPR), Single Cycle Kinetics; conditions: SPR, GDP-bound HRAS wild-type protein vs GDP-bound KRAS wild-type protein
# Sequence of GDP-bound HRAS wild-type protein (P01112 whole entry): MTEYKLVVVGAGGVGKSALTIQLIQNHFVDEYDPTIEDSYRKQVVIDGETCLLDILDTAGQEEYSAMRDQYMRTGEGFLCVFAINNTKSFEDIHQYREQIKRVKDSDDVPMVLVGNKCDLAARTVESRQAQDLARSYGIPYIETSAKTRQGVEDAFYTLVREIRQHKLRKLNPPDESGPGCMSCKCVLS
# Sequence of GDP-bound KRAS wild-type protein (P01116 whole entry): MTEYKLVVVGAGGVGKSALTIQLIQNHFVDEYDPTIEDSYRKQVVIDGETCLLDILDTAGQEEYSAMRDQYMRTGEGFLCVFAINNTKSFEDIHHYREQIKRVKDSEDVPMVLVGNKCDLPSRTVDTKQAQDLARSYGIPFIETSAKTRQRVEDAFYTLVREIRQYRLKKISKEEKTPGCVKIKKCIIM
smiles,measurement,setting,value
CC[C@H](C)[C@@H]1NC(=O)[C@H](CC)N(C)C(=O)C[C@@H](C(=O)N(C)C)N(C)C(=O)[C@H](C2CCCC2)N(C)C(=O)C2(CCC2)NC(=O)[C@@H]2COCCN2C(=O)[C@H](CCc2cc(F)c(C(F)(F)F)c(F)c2)NC(=O)CN(C)C(=O)[C@H](Cc2ccc(C(F)(F)F)cc2)N2CC/C=C\C[C@@H](C2=O)N(C)C(=O)CN(C)C1=O [PP1138],Kd,[1],0.19 nM
same,IC50,[2],244 nM
same,NRAS/KRAS (ratio of KD value for NRAS to KD value for KRAS),[3],A (a compound having 10 or more and less than 20 is denoted as A)
same,HRAS/KRAS (ratio of KD value for HRAS to KD value for KRAS),[4],A (a compound having 10 or more and less than 20 is denoted as A)
CC[C@H](C)[C@@H]1NC(=O)[C@H](CC)N(C)C(=O)C[C@@H](C(=O)N(C)C)N(C)C(=O)[C@H](C2CCCC2)N(C)C(=O)C2(CCC2)NC(=O)[C@@H]2CCN2C(=O)[C@H](CCc2cc(F)c(C(F)(F)F)c(F)c2)NC(=O)CN(C)C(=O)[C@H](Cc2ccc(C(F)(F)F)cc2)N2CC/C=C\C[C@@H](C2=O)N(C)C(=O)CN(C)C1=O [PP1139],Kd,[1],0.43 nM
same,IC50,[2],297 nM
same,NRAS/KRAS (ratio of KD value for NRAS to KD value for KRAS),[3],A (a compound having 10 or more and less than 20 is denoted as A)
same,HRAS/KRAS (ratio of KD value for HRAS to KD value for KRAS),[4],A (a compound having 10 or more and less than 20 is denoted as A)
"CC[C@H](C)[C@@H]1NC(=O)[C@H](CC)N(C)C(=O)C[C@@H](C(=O)N(C)C)N(C)C(=O)[C@H](C2CCCC2)N(C)C(=O)C2(CCC2)NC(=O)[C@H](C)NC(=O)[C@H](CCc2cc(F)c(C(F)(F)F)c(F)c2)NC(=O)CN(C)C(=O)[C@H](Cc2ccc(C(F)(F)F)cc2)N2CC/C=C\C[C@@H](C2=O)N(C)C(=O)CN(C)C1=O [PP1140, (2S,8S,11S,17S,20S,24S,27S,33S,35Z)-17-cyclopentyl-8-[2-[3,5-difluoro-4-(trifluoromethyl)phenyl]ethyl]-24-ethyl-N,N,4,11,16,19,23,29,32-nonamethyl-27-[(1S)-1-methylpropyl]-3,6,9,12,15,18,22,25,28,31,39-undecaoxo-2-[[4-(trifluoromethyl)phenyl]methyl]spiro[1,4,7,10,13,16,19,23,26,29,32-undecazabicyclo[31.5.1]nonatriacont-35-ene-14,1′-cyclobutane]-20-carboxamide]",Kd,[1],0.15 nM
same,IC50,[2],1780 nM
same,NRAS/KRAS (ratio of KD value for NRAS to KD value for KRAS),[3],A (a compound having 10 or more and less than 20 is denoted as A)
same,HRAS/KRAS (ratio of KD value for HRAS to KD value for KRAS),[4],A (a compound having 10 or more and less than 20 is denoted as A)
CCCN1CC(=O)NC2(CCC2)C(=O)N(C)[C@@H](C2CCCC2)C(=O)N(C)[C@H](C(=O)N(C)C)CC(=O)N(C)[C@@H](CC)C(=O)N[C@@H]([C@@H](C)CC)C(=O)N(C)CC(=O)N(C)[C@H]2C/C=C\CCN(C2=O)[C@@H](Cc2ccc(C(F)(F)F)cc2)C(=O)N(C)CC(=O)N[C@@H](CCc2cc(F)c(C(F)(F)F)c(F)c2)C1=O [PP1141],Kd,[1],0.32 nM
same,IC50,[2],424 nM
same,NRAS/KRAS (ratio of KD value for NRAS to KD value for KRAS),[3],AA (a compound having 20 or more is denoted as AA)
same,HRAS/KRAS (ratio of KD value for HRAS to KD value for KRAS),[4],A (a compound having 10 or more and less than 20 is denoted as A)
CCCCN1CC(=O)NC2(CCC2)C(=O)N(C)[C@@H](C2CCCC2)C(=O)N(C)[C@H](C(=O)N(C)C)CC(=O)N(C)[C@@H](CC)C(=O)N[C@@H]([C@@H](C)CC)C(=O)N(C)CC(=O)N(C)[C@H]2C/C=C\CCN(C2=O)[C@@H](Cc2ccc(C(F)(F)F)cc2)C(=O)N(C)CC(=O)N[C@@H](CCc2cc(F)c(C(F)(F)F)c(F)c2)C1=O [PP1142],Kd,[1],0.65 nM
same,IC50,[2],322 nM
same,NRAS/KRAS (ratio of KD value for NRAS to KD value for KRAS),[3],A (a compound having 10 or more and less than 20 is denoted as A)
same,HRAS/KRAS (ratio of KD value for HRAS to KD value for KRAS),[4],A (a compound having 10 or more and less than 20 is denoted as A)
CC[C@H](C)[C@@H]1NC(=O)[C@H](CC)N(C)C(=O)C[C@@H](C(=O)N(C)C)N(C)C(=O)[C@H](C2CCCC2)N(C)C(=O)C2(CCC2)NC(=O)CN(CC)C(=O)[C@H](CCc2cc(F)c(C(F)(F)F)c(F)c2)NC(=O)CN(C)C(=O)[C@H](Cc2ccc(C(F)(F)F)cc2)N2CC/C=C\C[C@@H](C2=O)N(C)C(=O)CN(C)C1=O [PP1143],Kd,[1],0.17 nM
same,IC50,[2],75.3 nM
same,NRAS/KRAS (ratio of KD value for NRAS to KD value for KRAS),[3],A (a compound having 10 or more and less than 20 is denoted as A)
same,HRAS/KRAS (ratio of KD value for HRAS to KD value for KRAS),[4],A (a compound having 10 or more and less than 20 is denoted as A)
CC[C@H](C)[C@@H]1NC(=O)[C@H](CC)N(C)C(=O)C[C@@H](C(=O)N(C)C)N(C)C(=O)[C@H](C2CCCC2)N(C)C(=O)C2(CCC2)NC(=O)[C@H](COC)N(C)C(=O)[C@H](CCc2cc(F)c(C(F)(F)F)c(F)c2)NC(=O)CN(C)C(=O)[C@H](Cc2ccc(C(F)(F)F)cc2)N2CC/C=C\C[C@@H](C2=O)N(C)C(=O)CN(C)C1=O [PP1145],Kd,[1],0.21 nM
same,IC50,[2],140 nM
same,NRAS/KRAS (ratio of KD value for NRAS to KD value for KRAS),[3],A (a compound having 10 or more and less than 20 is denoted as A)
same,HRAS/KRAS (ratio of KD value for HRAS to KD value for KRAS),[4],B (a compound having 3 or more and less than 10 is denoted as B)
CC[C@H](C)[C@@H]1NC(=O)[C@H](CC)N(C)C(=O)C[C@@H](C(=O)N(C)C)N(C)C(=O)[C@H](C2CCCC2)N(C)C(=O)C2(CCC2)NC(=O)[C@H](C)N(C)C(=O)[C@H](CCc2cc(F)c(C(F)(F)F)c(F)c2)NC(=O)CN(C)C(=O)[C@H](Cc2ccc(C(F)(F)F)cc2)N2CC/C=C\C[C@@H](C2=O)N(C)C(=O)CN(C)C1=O [PP1146],Kd,[1],0.32 nM
same,IC50,[2],202 nM
same,NRAS/KRAS (ratio of KD value for NRAS to KD value for KRAS),[3],A (a compound having 10 or more and less than 20 is denoted as A)
same,HRAS/KRAS (ratio of KD value for HRAS to KD value for KRAS),[4],B (a compound having 3 or more and less than 10 is denoted as B)
CC[C@H](C)[C@@H]1NC(=O)[C@H](CC)N(C)C(=O)C[C@@H](C(=O)N(C)C)N(C)C(=O)[C@H](C2CCCC2)N(C)C(=O)C2(CCC2)NC(=O)[C@H](COCCC(C)C)N(C)C(=O)[C@H](CCc2cc(F)c(C(F)(F)F)c(F)c2)NC(=O)CN(C)C(=O)[C@H](Cc2ccc(C(F)(F)F)cc2)N2CC/C=C\C[C@@H](C2=O)N(C)C(=O)CN(C)C1=O [PP1148],Kd,[1],1.2 nM
same,IC50,[2],357 nM
same,NRAS/KRAS (ratio of KD value for NRAS to KD value for KRAS),[3],A (a compound having 10 or more and less than 20 is denoted as A)
same,HRAS/KRAS (ratio of KD value for HRAS to KD value for KRAS),[4],A (a compound having 10 or more and less than 20 is denoted as A)
CC[C@H](C)[C@@H]1NC(=O)[C@H](CC)N(C)C(=O)C[C@@H](C(=O)N(C)C)N(C)C(=O)[C@H](C2CCCC2)N(C)C(=O)C2(CCC2)NC(=O)[C@H](CC2CCCCC2)N(C)C(=O)[C@H](CCc2cc(F)c(C(F)(F)F)c(F)c2)NC(=O)CN(C)C(=O)[C@H](Cc2ccc(C(F)(F)F)cc2)N2CC/C=C\C[C@@H](C2=O)N(C)C(=O)CN(C)C1=O [PP1149],Kd,[1],0.43 nM
same,IC50,[2],173 nM
same,NRAS/KRAS (ratio of KD value for NRAS to KD value for KRAS),[3],A (a compound having 10 or more and less than 20 is denoted as A)
same,HRAS/KRAS (ratio of KD value for HRAS to KD value for KRAS),[4],A (a compound having 10 or more and less than 20 is denoted as A)
CCCC[C@H]1C(=O)NC2(CCC2)C(=O)N(C)[C@@H](C2CCCC2)C(=O)N(C)[C@H](C(=O)N(C)C)CC(=O)N(C)[C@@H](CC)C(=O)N[C@@H]([C@@H](C)CC)C(=O)N(C)CC(=O)N(C)[C@H]2C/C=C\CCN(C2=O)[C@@H](Cc2ccc(C(F)(F)F)cc2)C(=O)N(C)CC(=O)N[C@@H](CCc2cc(F)c(C(F)(F)F)c(F)c2)C(=O)N1C [PP1150],Kd,[1],0.17 nM
same,IC50,[2],42.7 nM
same,NRAS/KRAS (ratio of KD value for NRAS to KD value for KRAS),[3],AA (a compound having 20 or more is denoted as AA)
same,HRAS/KRAS (ratio of KD value for HRAS to KD value for KRAS),[4],A (a compound having 10 or more and less than 20 is denoted as A)
CCO[C@@H]1C[C@H]2C(=O)NC3(CCC3)C(=O)N(C)[C@@H](C3CCCC3)C(=O)N(C)[C@H](C(=O)N(C)C)CC(=O)N(C)[C@@H](Cc3ccccc3C#N)C(=O)N[C@@H]([C@@H](C)CC)C(=O)N(C)CC(=O)N(C)[C@H]3CCCCCN(C3=O)[C@@H](Cc3ccc(F)cc3)C(=O)N(C)CC(=O)N[C@@H](CCc3cc(F)c(C(F)(F)F)c(F)c3)C(=O)N2C1 [PP1155],Kd,[1],0.15 nM
same,IC50,[2],73.1 nM
same,NRAS/KRAS (ratio of KD value for NRAS to KD value for KRAS),[3],B (a compound having 3 or more and less than 10 is denoted as B)
same,HRAS/KRAS (ratio of KD value for HRAS to KD value for KRAS),[4],B (a compound having 3 or more and less than 10 is denoted as B)
CCO[C@@H]1C[C@H]2C(=O)NC3(CCC3)C(=O)N(C)[C@@H](C3CCCC3)C(=O)N(C)[C@H](C(=O)N(C)C)CC(=O)N(C)[C@@H](Cc3cccc(C#N)c3)C(=O)N[C@@H]([C@@H](C)CC)C(=O)N(C)CC(=O)N(C)[C@H]3CCCCCN(C3=O)[C@@H](Cc3ccc(F)cc3)C(=O)N(C)CC(=O)N[C@@H](CCc3cc(F)c(C(F)(F)F)c(F)c3)C(=O)N2C1 [PP1156],Kd,[1],0.063 nM
same,IC50,[2],33.7 nM
same,NRAS/KRAS (ratio of KD value for NRAS to KD value for KRAS),[3],B (a compound having 3 or more and less than 10 is denoted as B)
same,HRAS/KRAS (ratio of KD value for HRAS to KD value for KRAS),[4],B (a compound having 3 or more and less than 10 is denoted as B)
CCO[C@@H]1C[C@H]2C(=O)NC3(CCC3)C(=O)N(C)[C@@H](C3CCCC3)C(=O)N(C)[C@H](C(=O)N(C)C)CC(=O)N(C)[C@@H](Cc3ccc(C#N)cc3)C(=O)N[C@@H]([C@@H](C)CC)C(=O)N(C)CC(=O)N(C)[C@H]3CCCCCN(C3=O)[C@@H](Cc3ccc(F)cc3)C(=O)N(C)CC(=O)N[C@@H](CCc3cc(F)c(C(F)(F)F)c(F)c3)C(=O)N2C1 [PP1157],Kd,[1],0.061 nM
same,IC50,[2],30.3 nM
same,NRAS/KRAS (ratio of KD value for NRAS to KD value for KRAS),[3],B (a compound having 3 or more and less than 10 is denoted as B)
same,HRAS/KRAS (ratio of KD value for HRAS to KD value for KRAS),[4],B (a compound having 3 or more and less than 10 is denoted as B)
